Data from patent US10428151B2, “Treatment of hematologic malignancies with an anti-CXCR4 antibody” (BRISTOL-MYERS SQUIBB COMPANY, priority 2011, dated 2019).
Where “and” joins values, the source holds several entries; their conditions need not be identical. Identical values can stand only once.

What was measured:
CCRF-CEM = CCRF-CEM tumor growth inhibition (monotherapy); assay type: in vivo
MM cells [1] = assay: Apoptotic and CXCL12 signalling pathways in MM cells; assay type: cell-based
Source text: The BMS936564 antibody targeted MM cells in the context of BM milieu by overcoming BMSC-induced proliferation of tumor cells. […] Importantly, as described in Example 16, BMS936564 inhibited MM cell proliferation in vivo in xenograft mouse models.

KG-1 = KG-1 tumor growth inhibition (monotherapy); assay type: in vivo
primary MM cells = details: Roccaro et al., 2012; cited from earlier work
[2] = system: SU-DHL-6 B cell lymphoma cells; assay: SU-DHL-6 subcutaneous xenograft; assay type: in vivo, mouse
Experimental: (§1) Additional subcutaneous xenograft tumor models were tested for the ability of anti-CXCR4 antibodies to inhibit tumor growth, in experiments similar to those described above and in Example 9. […] Although the tumor cells in vivo were stainable by the mAb by immunohistochemistry, it is unclear at what stage of their tumor growth CXCR4 began to be expressed.

MM.1S cells = assay: MM.1S MM xenograft in SCID mice; assay type: in vivo
parental JJN-3 cells = assay: JJN-3 MM xenograft in SCID mice; assay type: in vivo; details: Day 25; compared to vehicle control; MDX-1338 10 mg/kg/dose IP, bortezomib 0.8 mg/kg/dose IV
Source text: 5 million JJN-3 cells/mouse were implanted into SCID mice and the mice were randomized into groups of 8 when the tumor volume reached approximately 77 mm^3.

Nomo-1 = Nomo-1 AML xenograft; assay type: in vivo, SCID mice
Source text: In the Nomo-1 model (7.5 million cells implanted subcutaneously as in Example 14).

[3] = system: Bortezomib-resistant JJN-3R cells; assay: JJN-3R MM xenograft in SCID mice; assay type: in vivo
CLL cells = details: 2-200 nM; Kashyap et al., 2012; cited from earlier work
Ramos cells = assay: Ramos lymphoma xenograft in SCID mice; assay type: in vivo
Experimental: When a mean and median tumor size of 80 mm^3 was reached, the mice were randomized (n=8) according to tumor volume. […] Tumors and body weights were measured twice weekly. Tumor volumes were measured in three dimensions (L×W×H/2) with a Fowler Electronic Digital Caliper (Model 62379-531; Fred V. Fowler Co., Newton, Mass.), and data was electronically recorded using Study Director software from StudyLog Systems, Inc. (South San Francisco, Calif.). Animals were checked daily for postural, grooming, and respiratory changes, as well as lethargy. Mice were euthanized when the tumors reached the 2000 mm^3 endpoint or appeared ulcerated.

Ramos tumor cells = assay: Ramos cell proliferation, 3H-thymidine incorporation; assay type: cell-based, human; details: 10^−3 to 300 nM; 72 hours
Experimental: In this example, the ability of the anti-CXCR4 human antibodies to inhibit proliferation of Ramos tumor cells (a human Burkitt's lymphoma cell line) in vitro was examined. […] The cells were incubated with antibody for 72 hours, with ^3H-thymidine being added for the final 24 hours of incubation to allow for monitoring of cell proliferation. Following the incubation, incorporation of ^3H-thymidine by the cells was measured by standard techniques. The results are shown in the graph of FIG. 11A.

[4] = system: DMS79 human small cell lung carcinoma cells; assay: DMS79 small cell lung carcinoma xenograft; assay type: in vivo, mouse; details: Day 34 post-implantation; 10 mg/kg IP Q3D×5
Experimental: In a second experiment, 5×10^6 DMS79 human small cell lung carcinoma cells/mouse were implanted into the flank region of each mouse and allowed to grow to a mean size of 160 mm^3, calculated by length×width×height/2 of the tumors, which was day 7 post-implantation. The mice were randomized into different treatment groups and received intraperitoneal (IP) injections of antibody on a dosing schedule of Q3D×5 (every three days for five times). […] Tumor volumes were measured at regular intervals and the mean and median tumor volume determined for each treatment group at each interval.

[5] = system: HPAC human pancreatic adenocarcinoma cells; assay: HPAC subcutaneous xenograft; assay type: in vivo, mouse
Experimental: as §1

[6] = system: human umbilical vein endothelial cells (HuVEC); assay: HuVEC capillary tube formation; assay type: cell-based; details: HuVEC on MATRIGEL, 18 hours
Experimental: In this example, the ability of the anti-CXCR4 human antibodies to inhibit capillary tube formation by human umbilical vein endothelial cells (HuVEC) was examined […]® was diluted 1:1 with RPMI and plated onto the wells of a 96 well plate and allowed to polymerize for 30 minutes at 37° C. HuVEC (from Cambrex, cat. # CC-2519) at 80% confluence were trypsinized and resuspended at 1×10^6 cells per ml in RPMI with 0.5% FBS. Antibodies were well mixed with HuVEC at a final concentration of 3 mg/ml and allowed to incubate at room temperature for 30 minutes. An irrelevant antibody of the same isotype or media alone was used as a negative control. As a positive control of inhibition of tube formation, a mouse anti-human αvβ3 (CD51/CD61) antibody (R&D Systems, cat. # MAB3050) was used. HuVEC with or without antibodies were plated onto the […]®-coated wells and incubated at 37° C. for 18 hours.
The HuVEC incubated with media alone or with the isotype-matched control antibody formed capillary tubes resulting in the appearance of connected cells across the plate with 3-5 points of connection or branch points per cell. […] The cells appeared isolated and with few or no branch points.

MM cells [7] = details: compared to vehicle-treated mice; Roccaro et al., 2012; cited from earlier work

BMS-936564: fully human anti-CXCR4 monoclonal antibody; VH SEQ ID NO: 25, VL SEQ ID NO: 29
% Tumor Growth Inhibition (Monotherapy) (CCRF-CEM): 72% | CXCL12-induced ERK-, Aid-, and Src-phosphorylation (MM cells [1]): inhibited by BMS936564 in a dose-dependent manner | activation of apoptotic pathways in MM cells (MM cells [1]): cleavage of caspase-9 and PARP | % Tumor Growth Inhibition (Monotherapy) (KG-1): 23% | adhesion of primary MM cells to BMSCs (primary MM cells): inhibited by BMS936564 in a dose-dependent manner | % Tumor Growth Inhibition (Monotherapy) ([2]; DHL6): 55% and 77% | tumor growth inhibition ([2]; SU-DHL-6, 15 mg/kg): approximately 60% | mean tumor growth inhibition (MM.1S cells; Day 25, compared to isotype control, MDX-1338 10 mg/kg/dose, lenalidomide 100 mg/kg): 60% | % Tumor Growth Inhibition (Monotherapy) (MM.1S cells; MM.1S): 49% | tumor growth inhibition (MM.1S cells; MM.1S): MDX-1338 = 60% | tumor growth inhibition (parental JJN-3 cells): 52% | % Tumor Growth Inhibition (Monotherapy) (Nomo-1; Nomo-1): 88% | median tumor growth inhibition (Nomo-1; day 34, 10 mg/kg/dose, compared to isotype or vehicle control): 88% | mice tumor-free at the end of study ([3]; 30-mg/kg group): 4 out of 7 | % Tumor Growth Inhibition (Monotherapy) ([3]; JJN3R): 97% | tumor growth inhibition ([3]; JJN-3R): MDX-1338 = 100% | median tumor growth inhibition ([3]; day 25, 10 or 30 mg/kg/dose IP, compared to isotype control): 100% | cell death in CLL cells cultured alone and in the MRD model (CLL cells): induced cell death | time the inhibition was maintained (Ramos cells; 15 mg/kg/dose IP Days 0 and 7): 60 days | median growth inhibition (Ramos cells; Day 21, 15 mg/kg/dose IP Days 0 and 7): 99% | % Tumor Growth Inhibition (Monotherapy) (Ramos cells; Ramos): 80% | inhibition of Ramos cell proliferation (3H-thymidine incorporation) (Ramos tumor cells): able to inhibit Ramos cell proliferation | Mean tumor volume [4]: 620 mm^3 | Median tumor volume [4]: 599 mm^3 | TGI (%) (mean) [4]: 38% | tumor growth inhibition [5]: no tumor growth inhibition | inhibition of capillary tube formation [6]: most effective in inhibiting capillary tube formation | MM cell dissemination to distant bone marrow niches (MM cells [7]): less MM cell dissemination
